Assay results taken from patent US7691965B2, “Helical synthetic peptides that stimulate cellular cholesterol efflux” (The Regents of the University of California, priority 2002, dated 2010).
Where a SMILES comes first, the peptide text is derived from it.

Tests used:
[1] = Relative lipid binding affinity by surface balance technique (monolayer exclusion pressure); type: physicochemical; conditions: surface balance technique
Text: Relative Lipid Binding Affinity, Hydrophobicity, and Amphiphilicity of Synthetic Peptides—In some experiments, the relative lipid binding affinity of unique peptides was quantified using a surface balance technique (Gillotte, K L. et al., J. Biol. Chem., 274:2021-2028 (1999)). For routine analyses, a turbid solution of dimyristoylphosphatidylcholine (DMPC) was used to assess the relative capacity of synthetic peptides to solubilize phospholipid as described (Palgunachari, M. N. et al., Arterioscler. Thromb. Vasc. Biol., 16:328-338 (1996); McLean, L. R. and Hagaman, K. A., Biochim. Biophys. Acta, 1167:289-295 (1993)). The DMPC was used at a final concentration of 0.08 mg/ml in 10 mM Tris-saline (pH 7.4). The final weight ratio of peptides relative to DMPC was 1:1. The absorbance (400 nm) of samples was monitored continuously over a period of 30 min at 25° C. Hydrophobicity of helical peptides was calculated using the consensus scale (Eisenberg D., Annu. Rev. Biochem., 53:593-623 (1984)). The hydrophobic moment (kcal/mol) of synthetic peptides, which is a measure of helix amphiphilicity, was calculated as described by Eisenberg et al. (Eisenberg, D. et al., Nature, 299:371-374 (1982)).

[2] = target: T1, ABCA1 (Mus musculus, UniProt P41233); assay: Cellular cholesterol efflux from [3H]cholesterol-labeled J774 macrophages with and without cAMP analog; type: cell-based; parameters: endogenous in cells; host or cells: J774 macrophages treated with a cAMP analog (CPT-cAMP or 8-bromo-cAMP); conditions: lipid-free acceptor, J774 macrophages with vs without cAMP analog
T1 sequence (P41233 whole entry): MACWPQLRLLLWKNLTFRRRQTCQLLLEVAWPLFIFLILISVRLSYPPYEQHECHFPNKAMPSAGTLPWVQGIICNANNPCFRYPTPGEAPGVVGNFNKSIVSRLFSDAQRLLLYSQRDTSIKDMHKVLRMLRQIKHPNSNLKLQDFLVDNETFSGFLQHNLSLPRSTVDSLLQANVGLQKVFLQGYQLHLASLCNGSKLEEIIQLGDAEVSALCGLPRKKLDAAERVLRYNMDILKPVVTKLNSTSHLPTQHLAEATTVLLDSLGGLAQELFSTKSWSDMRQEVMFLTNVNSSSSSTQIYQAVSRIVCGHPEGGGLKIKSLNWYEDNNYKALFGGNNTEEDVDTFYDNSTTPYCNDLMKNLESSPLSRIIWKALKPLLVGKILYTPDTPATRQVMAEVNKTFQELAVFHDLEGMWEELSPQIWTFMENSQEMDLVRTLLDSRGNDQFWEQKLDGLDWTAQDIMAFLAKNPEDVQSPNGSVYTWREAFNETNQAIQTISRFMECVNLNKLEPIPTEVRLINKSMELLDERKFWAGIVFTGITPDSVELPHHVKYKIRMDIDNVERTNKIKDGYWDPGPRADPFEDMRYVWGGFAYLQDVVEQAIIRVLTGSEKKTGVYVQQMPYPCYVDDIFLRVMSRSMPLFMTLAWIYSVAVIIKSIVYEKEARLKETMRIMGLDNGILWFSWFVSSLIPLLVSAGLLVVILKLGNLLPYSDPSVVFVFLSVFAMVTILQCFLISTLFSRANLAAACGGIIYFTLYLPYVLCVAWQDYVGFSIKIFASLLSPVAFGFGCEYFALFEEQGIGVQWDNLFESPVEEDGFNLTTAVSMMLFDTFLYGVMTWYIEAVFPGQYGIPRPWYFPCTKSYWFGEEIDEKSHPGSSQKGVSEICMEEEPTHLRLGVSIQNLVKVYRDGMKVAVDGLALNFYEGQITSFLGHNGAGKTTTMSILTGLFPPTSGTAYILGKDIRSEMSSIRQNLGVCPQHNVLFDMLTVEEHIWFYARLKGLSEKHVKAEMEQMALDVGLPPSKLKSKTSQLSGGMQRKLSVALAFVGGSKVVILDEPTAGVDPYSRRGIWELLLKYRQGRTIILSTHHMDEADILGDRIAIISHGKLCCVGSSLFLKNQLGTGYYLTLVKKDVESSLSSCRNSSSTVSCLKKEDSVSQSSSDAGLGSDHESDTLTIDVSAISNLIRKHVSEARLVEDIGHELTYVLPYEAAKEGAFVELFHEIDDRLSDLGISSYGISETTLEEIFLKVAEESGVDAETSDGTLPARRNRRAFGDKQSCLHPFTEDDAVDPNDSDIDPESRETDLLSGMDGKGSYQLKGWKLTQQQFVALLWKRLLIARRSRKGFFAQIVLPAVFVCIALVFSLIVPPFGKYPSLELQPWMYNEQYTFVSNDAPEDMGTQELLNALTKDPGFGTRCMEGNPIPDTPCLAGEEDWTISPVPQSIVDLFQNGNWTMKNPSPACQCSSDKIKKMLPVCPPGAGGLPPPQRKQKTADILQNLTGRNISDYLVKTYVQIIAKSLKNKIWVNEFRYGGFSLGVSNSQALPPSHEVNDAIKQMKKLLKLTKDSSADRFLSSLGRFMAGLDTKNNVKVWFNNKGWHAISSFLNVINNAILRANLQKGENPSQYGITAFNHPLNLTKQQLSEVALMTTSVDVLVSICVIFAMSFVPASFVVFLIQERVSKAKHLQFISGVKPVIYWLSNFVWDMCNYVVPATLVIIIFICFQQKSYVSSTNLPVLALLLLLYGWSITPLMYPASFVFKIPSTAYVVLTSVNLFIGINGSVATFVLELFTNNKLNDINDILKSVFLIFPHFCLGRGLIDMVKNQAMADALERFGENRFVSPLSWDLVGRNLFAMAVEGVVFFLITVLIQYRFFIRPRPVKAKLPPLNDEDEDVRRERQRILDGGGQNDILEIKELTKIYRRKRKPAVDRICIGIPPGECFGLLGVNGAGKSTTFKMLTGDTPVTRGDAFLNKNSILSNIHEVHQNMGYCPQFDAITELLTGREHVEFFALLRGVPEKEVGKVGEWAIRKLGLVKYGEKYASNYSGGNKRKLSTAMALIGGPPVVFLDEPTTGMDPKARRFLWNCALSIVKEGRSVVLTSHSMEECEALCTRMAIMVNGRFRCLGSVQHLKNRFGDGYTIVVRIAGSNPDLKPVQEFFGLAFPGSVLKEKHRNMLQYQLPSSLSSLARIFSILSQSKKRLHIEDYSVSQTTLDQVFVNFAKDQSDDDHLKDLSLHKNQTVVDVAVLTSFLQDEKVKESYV
Text: Suitable cholesterol efflux assays are described in, e.g., Bielicki, J. K and Oda, M. N., Biochemistry, 41:2089-2096 (2002); Jia, Z. et al., Biochem. Biophys. Res. Common., 297:206-213 (2002). In some embodiments, a polypeptide known to mediate cholesterol efflux (e.g., helix 9/10 of Apo A-I) is used to screen for additional mediators of cholesterol efflux in a cell based assay. For example, cell lines in which cholesterol efflux can be enhanced using a cAMP analog that up-regulates ABCA1 protein expression (e.g., J774 macrophages) can conveniently be used to assess the ability of an Apo A-I, Apo A-II, Apo A-IV, Apo E, Apo C-I, Apo C-II, Apo C-III, or Serum Amyloid A peptide to mediate cholesterol efflux. The cells are incubated with labeled cholesterol (e.g., [^3H]cholesterol) under conditions appropriate for cholesterol uptake by the cells. cAMP or cAMP analogs (e.g., CPT-cAMP) is incubated with the cells for a suitable time before the initiation of cellular cholesterol efflux, i.e., prior to contacting the cells with helix 9/10 of Apo A-I or the test compound. Measurement of labeled cholesterol appearing in the medium is used to determine the cholesterol efflux mediating activity of the test compound.
Cellular Cholesterol Efflux Protocol—J774 macrophages were used to assess the cholesterol efflux properties of synthetic amphipathic α-helical peptides (Bielicki, J. K and Oda, M. N., Biochemistry, 41:2089-2096 (2002); Jia, Z. et al., Biochem. Biophys. Res. Common., 297:206-213 (2002)). This cell line was chosen because cholesterol efflux can be enhanced using a cAMP analog that up-regulates ABCA1 protein expression. The cells were seeded onto 24-well culture plates and labeled for 48 h with [^3H]cholesterol in RPMI 1640 supplemented with 1% fetal bovine serum. The cAMP analog CPT-cAMP was added (0.3 mM, final concentration) to the cells at least 12 h before the initiation of cellular cholesterol efflux. Synthetic peptides in lipid-free form were added to cells in serum-free RPMI. The lipid-free form of full-length recombinant apoA-I was used as a positive control to define apparent ABCA1-dependent cholesterol efflux in the presence and absence of cAMP stimulation. Efflux results were expressed as a percentage of the initial cellular [^3H] appearing in the medium as a function of time subtracting the background efflux obtained using serum-free medium alone.

[3] = target: T1, ABCA1; assay: ABCA1 stabilization: immunoblot of ABCA1 protein in J774 macrophage membranes after cAMP withdrawal; type: cell-based; parameters: J774 macrophages were used to assess relative ABCA1 protein levels in the presence and absence of synthetic peptides; endogenous in cells; host or cells: J774 macrophages treated with a cAMP analog (CPT-cAMP or 8-bromo-cAMP); conditions: 20 μg/ml peptide, 6 h without cAMP, J774 macrophages
Description: J774 macrophages were incubated (18 h) with 0.5 mM 8-bromo-cAMP in medium containing 0.1% bovine serum albumin to up-regulate ABCA1 protein expression. Washed cells were subsequently exposed for 6 h to bovine serum albumin medium with (+) or without (−) 8-bromo-cAMP and the indicated synthetic peptides (20 μg/ml). None refers to no peptides. The cellular membrane content of ABCA1 protein was measured by immunoblot analysis.
ABCA1 Stabilization—J774 macrophages were used to assess relative ABCA1 protein levels in the presence and absence of synthetic peptides. Cells were grown in 10% fetal bovine serum, extensively rinsed, and incubated (18 h) with Dulbecco's modified Eagle's medium containing 0.1% bovine serum albumin plus the cAMP analog 8-bromo-cAMP. Cells were next exposed to synthetic peptides or serum-free medium in the absence of the cAMP stimulus to evaluate whether ABCA1 protein was stabilized or degraded. Relative levels of ABCA1 protein were assessed by immunoblot analysis of cell membranes (Oram, J. F. et al., J. Biol. Chem., 278:52379-52385 (2003)). ABCA1 was visualized using an enhanced chemiluminescence detection assay.
To assess ABCA1 stabilization, J774 macrophages were treated with a cAMP analog to up-regulate ABCA1 protein expression and then incubated for 6 h without cAMP. In the absence of inducer, ABCA1 protein is rapidly degraded in these cells (FIG. 9). […] Thus, it appears that the helical combinations that stimulate cholesterol efflux also stabilize the ABCA1 transporter.

CSCC[C@H](NC(=O)[C@H](CCC(=O)O)NC(=O)[C@H](CCC(N)=O)NC(=O)[C@H](CCCNC(=N)N)NC(=O)[C@H](CC(C)C)NC(=O)CNC(=O)[C@H](CCC(=O)O)NC(=O)[C@@H](NC(=O)[C@H](CCC(=O)O)NC(=O)[C@H](CCCCN)NC(=O)[C@H](CCC(=O)O)NC(=O)[C@H](CC(C)C)NC(=O)[C@H](CC(N)=O)NC(=O)[C@H](CC(=O)O)NC(=O)[C@H](Cc1c[nH]c2ccccc12)NC(=O)[C@H](Cc1ccccc1)NC(=O)[C@H](CCC(=O)O)NC(=O)[C@H](CCC(N)=O)NC(=O)[C@@H](NC(=O)[C@@H](NC(=O)[C@@H]1CCCN1C(C)=O)C(C)C)[C@@H](C)O)[C@@H](C)O)C(=O)N[C@@H](CO)C(=O)N1CCC[C@H]1C(=O)N[C@@H](C)C(=O)N[C@@H](CC(C)C)C(=O)N[C@@H](CCC(=O)O)C(=O)N[C@@H](CC(=O)O)C(=O)N[C@@H](CC(C)C)C(=O)N[C@@H](CCCNC(=N)N)C(=O)N[C@@H](CCC(N)=O)C(=O)NCC(=O)N[C@@H](CC(C)C)C(=O)N[C@@H](CC(C)C)C(N)=O [Helical peptide 2/9] (Ac-PVTQEFWDNLEKETEGLRQEMSPALEDLRQGLL-NH2)
Monolayer exclusion pressure [1]: 19 dynes/cm
ABCA1-dependent cholesterol efflux (result in words) [2]: failed to stimulate ABCA1-dependent cholesterol efflux

CSCC[C@H](NC(=O)[C@H](CCC(=O)O)NC(=O)[C@H](CCC(N)=O)NC(=O)[C@H](CCCNC(=N)N)NC(=O)[C@H](CC(C)C)NC(=O)CNC(=O)[C@H](CCC(=O)O)NC(=O)[C@@H](NC(=O)[C@H](CCC(=O)O)NC(=O)[C@H](CCCCN)NC(=O)[C@H](CCC(=O)O)NC(=O)[C@H](CC(C)C)NC(=O)[C@H](CC(N)=O)NC(=O)[C@H](CC(=O)O)NC(=O)[C@H](Cc1c[nH]c2ccccc12)NC(=O)[C@H](Cc1ccccc1)NC(=O)[C@H](CCC(=O)O)NC(=O)[C@H](CCC(N)=O)NC(=O)[C@@H](NC(=O)[C@@H](NC(=O)[C@@H]1CCCN1C(C)=O)C(C)C)[C@@H](C)O)[C@@H](C)O)C(=O)N[C@@H](CO)C(N)=O [Helical peptide 2] (Ac-PVTQEFWDNLEKETEGLRQEMS-NH2)
Monolayer exclusion pressure [1]: 17 dynes/cm

CSCC[C@H](NC(=O)[C@H](CCC(=O)O)NC(=O)[C@H](CCC(=O)O)NC(=O)[C@H](CCC(N)=O)NC(=O)[C@H](Cc1c[nH]c2ccccc12)NC(=O)[C@H](CCCCN)NC(=O)[C@H](CCCCN)NC(=O)[C@H](CCC(N)=O)NC(=O)[C@H](Cc1ccccc1)NC(=O)[C@H](CC(=O)O)NC(=O)[C@H](CC(=O)O)NC(=O)[C@H](CC(C)C)NC(=O)[C@H](Cc1ccc(O)cc1)NC(=O)[C@@H]1CCCN1C(C)=O)C(=O)N[C@@H](CCC(=O)O)C(=O)N[C@@H](CC(C)C)C(=O)N[C@@H](Cc1ccc(O)cc1)C(=O)N[C@@H](CCCNC(=N)N)C(=O)N[C@@H](CCC(N)=O)C(=O)N[C@@H](CCCCN)C(=O)N[C@H](C(=O)N[C@@H](CCC(=O)O)C(=O)N1CCC[C@H]1C(=O)N[C@@H](C)C(=O)N[C@@H](CC(C)C)C(=O)N[C@@H](CCC(=O)O)C(=O)N[C@@H](CC(=O)O)C(=O)N[C@@H](CC(C)C)C(=O)N[C@@H](CCCNC(=N)N)C(=O)N[C@@H](CCC(N)=O)C(=O)NCC(=O)N[C@@H](CC(C)C)C(=O)N[C@@H](CC(C)C)C(N)=O)C(C)C [Helical peptide 4/9] (Ac-PYLDDFQKKWQEEMELYRQKVEPALEDLRQGLL-NH2)
ABCA1-dependent cholesterol efflux (result in words) [2]: failed to mediate ABCA1-dependent cholesterol efflux

CC(=O)N1CCC[C@H]1C(=O)N[C@@H](C)C(=O)N[C@@H](CC(C)C)C(=O)N[C@@H](CCC(=O)O)C(=O)N[C@@H](CC(=O)O)C(=O)N[C@@H](CC(C)C)C(=O)N[C@@H](CCCNC(=N)N)C(=O)N[C@@H](CCC(N)=O)C(=O)NCC(=O)N[C@@H](CC(C)C)C(=O)N[C@@H](CC(C)C)C(N)=O [Helical peptide 9] (Ac-PALEDLRQGLL-NH2)
ABCA1 stabilization (result in words) [3]: failed to prevent ABCA1 degradation
ABCA1-dependent cholesterol efflux (result in words) [2]: failed to stimulate ABCA1-dependent cholesterol efflux

CC(=O)N1CCC[C@H]1C(=O)N[C@H](C(=O)N[C@@H](CC(C)C)C(=O)N[C@@H](CCC(=O)O)C(=O)N[C@@H](CO)C(=O)N[C@@H](Cc1ccccc1)C(=O)N[C@@H](CCCCN)C(=O)N[C@H](C(=O)N[C@@H](CO)C(=O)N[C@@H](Cc1ccccc1)C(=O)N[C@@H](CC(C)C)C(=O)N[C@@H](CO)C(=O)N[C@@H](C)C(=O)N[C@@H](CC(C)C)C(=O)N[C@@H](CCC(=O)O)C(=O)N[C@@H](CCC(=O)O)C(=O)N[C@@H](Cc1ccc(O)cc1)C(=O)N[C@H](C(=O)N[C@@H](CCCCN)C(=O)N[C@@H](CCCCN)C(=O)N[C@@H](CC(C)C)C(=O)N[C@@H](CC(N)=O)C(=O)N1CCC[C@H]1C(=O)N[C@@H](C)C(=O)N[C@@H](CC(C)C)C(=O)N[C@@H](CCC(=O)O)C(=O)N[C@@H](CC(=O)O)C(=O)N[C@@H](CC(C)C)C(=O)N[C@@H](CCCNC(=N)N)C(=O)N[C@@H](CCC(N)=O)C(=O)NCC(=O)N[C@@H](CC(C)C)C(=O)N[C@@H](CC(C)C)C(N)=O)[C@@H](C)O)C(C)C)C(C)C [Helical peptide 10/9] (Ac-PVLESFKVSFLSALEEYTKKLNPALEDLRQGLL-NH2)
ABCA1 stabilization (result in words) [3]: failed to prevent ABCA1 degradation
ABCA1-dependent cholesterol efflux (result in words) [2]: failed to stimulate ABCA1-dependent cholesterol efflux

B1: ARMEEMGSRTRDRLDEVKEQVAEVRAKLEEQAQQIRLQAEAFQARLKSWFEPLVEDMQRQWAGLVEKVQAAVGTSAAPVPSDNH (protein)
chain: ARMEEMGSRTRDRLDEVKEQVAEVRAKLEEQAQQIRLQAEAFQARLKSWFEPLVEDMQRQWAGLVEKVQAAVGTSAAPVPSDNH
modifications: apolipoprotein Apo E, C-terminal domain (aa216-299)
notes: C-terminal domain, amino acid residues 216-299 of Apo E
ABCA1-dependent cholesterol efflux (result in words) ([2]; listed as C-terminal domain of apoE): potent stimulator of cholesterol efflux
ABCA1-dependent cholesterol efflux (result in words) ([2]; listed as CT domain): more effective than full-length apoE3
